According to patent publication US20130018360A1 (priority 2011, published 2013):

Test system: IOP (intra-ocular pressure)
Test: Clinical studies: change from baseline IOP after 20 nL nanodoses of bimatoprost
Type: in vivo, humans
Conditions: ~1 μg BP dosed as 20 nL on Days 0-3; IOP collected ~24 hours post-dose
Description: These IOP (intra-ocular pressure) data were collected ˜24 hours post-dose on each day. […] The Day 5 data shown in FIG. 1 below are the change from baseline IOP values following application of Lumigan.

CCNC(=O)CCC/C=C\C[C@@H]1[C@@H](/C=C/[C@@H](O)CCc2ccccc2)[C@H](O)C[C@@H]1O [BP, bimatoprost]
IOP-lowering effect (change from baseline IOP): IOP-lowering effect can occur
